Experimental data: patent publication US8148373B2, “Compounds” (AstraZeneca AB, priority 2008, dated 2012)

Tests used:
[1] = target: T1, Adrenergic β2 (H292 cells) (Homo sapiens, UniProt P07550); test: Assay for Adrenergic β2 Mediated cAMP Production (concentration response, AlphaScreen cAMP detection); type: cell-based; details: for EC50: cAMP production, 60 minutes at room temperature, 300 μM rolipram, read-out: β2 pEC50 (converted); for β2 Intrinsic activity: fraction relative to the maximum activity determined for formoterol
T1 construct: endogenous in cells; host or cells: H292 cells
Summary of the method: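 Intrinsic activity is relative to the per-experiment formoterol maximum, with pEC50 from a four-parameter logistic fit of cAMP levels quantified by AlphaScreen against standards. Cells (H292) got 300 μM rolipram for 10 min, then compound for 60 min at room temperature, 1% DMSO final.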

[2] = target: T2, human muscarinic acetylcholine M3 receptor (M3-ACh) (Homo sapiens, UniProt P20309); test: Muscarinic 3 Receptor Binding Assay ([3H]NMS competition, SPA); details: [3H]NMS 0.1 nM, CHO-K1 cell membranes, 16 hours at room temperature; read-out: M3 pIC50 (converted)
T2 construct: expressed in transfected cells; host or cells: CHO-K1 (Chinese Hamster Ovary) cell membranes
Summary of the method: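 Competition SPA binding of 0.1 nM [3H]NMS (quarter Kd) to membranes from CHO-K1 cells expressing human M3, in 20 mM HEPES pH 7.4, 5 mM MgCl2, 1% DMSO. Incubated 16 h at room temperature; non-specific binding with 1 µM atropine. pIC50 from 50% reduction of specific binding.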

T1 sequence (P07550 whole entry): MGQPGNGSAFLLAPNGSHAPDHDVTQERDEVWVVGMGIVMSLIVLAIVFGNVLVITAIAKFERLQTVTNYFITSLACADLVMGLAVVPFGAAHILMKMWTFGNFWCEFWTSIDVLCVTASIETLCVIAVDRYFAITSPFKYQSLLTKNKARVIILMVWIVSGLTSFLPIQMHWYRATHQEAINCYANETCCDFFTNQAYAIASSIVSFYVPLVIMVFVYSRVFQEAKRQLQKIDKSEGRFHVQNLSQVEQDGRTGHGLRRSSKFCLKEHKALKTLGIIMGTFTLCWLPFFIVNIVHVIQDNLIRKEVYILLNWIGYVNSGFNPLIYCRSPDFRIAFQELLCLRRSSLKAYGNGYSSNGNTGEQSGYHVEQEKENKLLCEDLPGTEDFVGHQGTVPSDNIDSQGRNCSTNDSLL
T2 sequence (P20309 whole entry): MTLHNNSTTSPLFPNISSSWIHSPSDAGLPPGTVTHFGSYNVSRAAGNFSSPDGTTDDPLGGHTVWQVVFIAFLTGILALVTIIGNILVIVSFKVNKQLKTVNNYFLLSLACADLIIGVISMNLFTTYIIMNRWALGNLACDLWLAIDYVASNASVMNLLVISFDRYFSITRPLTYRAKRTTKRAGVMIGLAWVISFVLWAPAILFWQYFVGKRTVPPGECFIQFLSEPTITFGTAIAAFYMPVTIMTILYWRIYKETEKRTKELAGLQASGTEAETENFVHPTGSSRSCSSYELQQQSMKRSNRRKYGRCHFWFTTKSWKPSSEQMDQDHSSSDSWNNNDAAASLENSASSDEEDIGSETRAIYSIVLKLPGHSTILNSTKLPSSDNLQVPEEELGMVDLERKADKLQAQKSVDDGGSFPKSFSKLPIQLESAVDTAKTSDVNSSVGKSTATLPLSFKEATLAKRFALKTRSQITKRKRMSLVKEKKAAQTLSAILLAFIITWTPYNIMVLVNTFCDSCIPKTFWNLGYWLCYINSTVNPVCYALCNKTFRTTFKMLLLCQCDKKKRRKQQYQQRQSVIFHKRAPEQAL

EC50 [1] [nM] | β2 Intrinsic activity [1] | IC50 [2] [nM] | Structure (SMILES)
7.94 | 0.7 | 6.31 | CC(C)c1nc(C(=O)N2CCOC3(CCN(Cc4cccc(CCNC[C@H](O)c5ccc(O)c6[nH]c(=O)ccc56)c4Cl)CC3)C2)cs1 [Example 81, (R)-5-(2-(2-Chloro-3-((4-(2-isopropylthiazole-4-carbonyl)-1-oxa-4,9-diazaspiro[5.5]undecan-9-yl)methyl)phenethylamino)-1-hydroxyethyl)-8-hydroxyquinolin-2(1H)-one ditrifluoroacetate]
3.98 | 0.9 | 0.398 | CC(C)c1cc(C(=O)N2CCOC3(CCN(Cc4cccc(CCNC[C@H](O)c5ccc(O)c6[nH]c(=O)sc56)c4)CC3)C2)cs1 [Example 82, (R)-4-Hydroxy-7-(1-hydroxy-2-(3-((4-(5-isopropylthiophene-3-carbonyl)-1-oxa-4,9-diazaspiro[5.5]undecan-9-yl)methyl)phenethylamino)ethyl)benzo[d]thiazol-2(3H)-one ditrifluoroacetate]
12.6 | 0.8 | 0.501 | CC(C)c1cc(C(=O)N2CCOC3(CCN(Cc4cccc(CCNC[C@H](O)c5ccc(O)c6[nH]c(=O)ccc56)c4)CC3)C2)cs1 [Example 83, (R)-8-Hydroxy-5-(1-hydroxy-2-(3-((4-(5-isopropylthiophene-3-carbonyl)-1-oxa-4,9-diazaspiro[5.5]undecan-9-yl)methyl)phenethylamino)ethyl)quinolin-2(1H)-one ditrifluoroacetate]
5.01 | 0.9 | 0.794 | CC(C)Cc1nc(C(=O)N2CCOC3(CCN(Cc4cccc(CCNC[C@H](O)c5ccc(O)c6[nH]c(=O)sc56)c4)CC3)C2)cs1 [Example 84, (R)-4-Hydroxy-7-(1-hydroxy-2-(3-((4-(2-isobutylthiazole-4-carbonyl)-1-oxa-4,9-diazaspiro[5.5]undecan-9-yl)methyl)phenethylamino)ethyl)benzo[d]thiazol-2(3H)-one ditrifluoroacetate]
2.51 | 0.8 | 0.158 | CCc1cc(C(=O)N2CCOC3(CCN(Cc4cccc(CCNC[C@H](O)c5ccc(O)c6[nH]c(=O)sc56)c4)CC3)C2)cs1 [Example 86, (R)-7-(2-(3-((4-(5-Ethylthiophene-3-carbonyl)-1-oxa-4,9-diazaspiro[5.5]undecan-9-yl)methyl)phenethylamino)-1-hydroxyethyl)-4-hydroxybenzo[d]thiazol-2(3H)-one ditrifluoroacetate]

Second part, the compound before the results:

Structure (SMILES) | EC50 [1] [nM] | β2 Intrinsic activity [1] | IC50 [2] [nM]
O=C(c1cc2ccccc2s1)N1CCOC2(CCN(Cc3cccc(CCNC[C@H](O)c4ccc(O)c5[nH]c(=O)sc45)c3F)CC2)C1 [Example 79, (R)-7-(2-(3-((4-(Benzo[b]thiophene-2-carbonyl)-1-oxa-4,9-diazaspiro[5.5]undecan-9-yl)methyl)-2-fluorophenethylamino)-1-hydroxyethyl)-4-hydroxybenzo[d]thiazol-2(3H)-one ditrifluoroacetate] | 6.31 | 0.9 | 126
CC(C)c1nc(C(=O)N2CCOC3(CCN(Cc4cccc(CCNC[C@H](O)c5ccc(O)c6[nH]c(=O)sc56)c4Cl)CC3)C2)cs1 [Example 80, (R)-7-(2-(2-Chloro-3-((4-(2-isopropylthiazole-4-carbonyl)-1-oxa-4,9-diazaspiro[5.5]undecan-9-yl)methyl)phenethylamino)-1-hydroxyethyl)-4-hydroxybenzo[d]thiazol-2(3H)-one ditrifluoroacetate] | 6.31 | 0.8 | 5.01
CC(C)c1cccc(C(=O)N2CCOC3(CCN(Cc4cccc(CCNC[C@H](O)c5ccc(O)c6[nH]c(=O)sc56)c4F)CC3)C2)n1 [Example 85, (R)-7-(2-(2-Fluoro-3-((4-(6-isopropylpicolinoyl)-1-oxa-4,9-diazaspiro[5.5]undecan-9-yl)methyl)phenethylamino)-1-hydroxyethyl)-4-hydroxybenzo[d]thiazol-2(3H)-one ditrifluoroacetate] | 7.94 | 0.8 | 50.1
CCCc1nc(C(=O)N2CCOC3(CCN(Cc4cccc(CCNC[C@H](O)c5ccc(O)c6[nH]c(=O)sc56)c4)CC3)C2)cs1 [Example 87, (R)-4-Hydroxy-7-(1-hydroxy-2-(3-((4-(2-propylthiazole-4-carbonyl)-1-oxa-4,9-diazaspiro[5.5]undecan-9-yl)methyl)phenethylamino)ethyl)benzo[d]thiazol-2(3H)-one ditrifluoroacetate] | 3.16 | 0.9 | 0.501
CC(C)c1nc(C(=O)N2CCOC3(CCN(Cc4cccc(CCCNC[C@H](O)c5ccc(O)c6[nH]c(=O)sc56)c4F)CC3)C2)cs1 [Example 88, (R)-7-(2-(3-(2-Fluoro-3-((4-(2-isopropylthiazole-4-carbonyl)-1-oxa-4,9-diazaspiro[5.5]undecan-9-yl)methyl)phenyl)propylamino)-1-hydroxyethyl)-4-hydroxybenzo[d]thiazol-2(3H)-one ditrifluoroacetate] | 12.6 | 1 | 2
Cc1nc(C(=O)N2CCOC3(CCN(Cc4cccc(CCNC[C@H](O)c5ccc(O)c6[nH]c(=O)sc56)c4)CC3)CC2)cs1 [Example 89, (R)-4-Hydroxy-7-(1-hydroxy-2-(3-((10-(2-methylthiazole-4-carbonyl)-7-oxa-3,10-diazaspiro[5.6]dodecan-3-yl)methyl)phenethylamino)ethyl)benzo[d]thiazol-2(3H)-one ditrifluoroacetate] | 1.58 | 1 | 31.6
CC(C)c1nc(C(=O)N2CCOC3(CCN(Cc4cccc(C(C)(C)CNC[C@H](O)c5ccc(O)c6[nH]c(=O)sc56)c4F)CC3)C2)cs1 [Example 90, (R)-7-(2-(2-(2-Fluoro-3-((4-(2-isopropylthiazole-4-carbonyl)-1-oxa-4,9-diazaspiro[5.5]undecan-9-yl)methyl)phenyl)-2-methylpropylamino)-1-hydroxyethyl)-4-hydroxybenzo[d]thiazol-2(3H)-one ditrifluoroacetate] | 200 | 0.9 | 79.4
CCc1cc(C(=O)N2CCOC3(CCN(Cc4cccc(CCNC[C@H](O)c5ccc(O)c6[nH]c(=O)sc56)c4F)CC3)C2)cs1 [Example 91, (R)-7-(2-(3-((4-(5-Ethylthiophene-3-carbonyl)-1-oxa-4,9-diazaspiro[5.5]undecan-9-yl)methyl)-2-fluorophenethylamino)-1-hydroxyethyl)-4-hydroxybenzo[d]thiazol-2(3H)-one ditrifluoroacetate] | 1.26 | 0.7 | 2
CC(C)c1nc(C(=O)N2CCOC3(CCN(Cc4cccc(C(C)(C)CNC[C@H](O)c5ccc(O)c6[nH]c(=O)ccc56)c4F)CC3)C2)cs1 [Example 92, (R)-5-(2-(2-(2-Fluoro-3-((4-(2-isopropylthiazole-4-carbonyl)-1-oxa-4,9-diazaspiro[5.5]undecan-9-yl)methyl)phenyl)-2-methylpropylamino)-1-hydroxyethyl)-8-hydroxyquinolin-2(1H)-one ditrifluoroacetate] | 794 | 0.9 | 126
